Assay results reported in PubChem BioAssay (NCI).
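Briefly, cells in 96-well plates were exposed to five compound concentrations for 48 h, and endpoints were estimated by linear interpolation. TGI is the concentration that stops growth completely.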

What was measured:
Assay in all cases: growth of human tumour cells (NCI), 48 h
[1] = test system: KM12 colon
[2] = test system: U251 CNS
[3] = test system: LOX IMVI melanoma
[4] = test system: SN12C renal
[5] = test system: SK-OV-3 ovarian
[6] = test system: CCRF-CEM leukemia
[7] = test system: HL-60(TB) leukemia
[8] = test system: IGROV1 ovarian
[9] = test system: SNB-19 CNS
[10] = test system: UACC-257 melanoma
[11] = test system: NCI-H23 lung
[12] = test system: HOP-92 NSCLC
[13] = test system: SK-MEL-28 melanoma
[14] = test system: EKVX NSCLC
[15] = test system: NCI-H226 lung
[16] = test system: SR leukemia
[17] = test system: NCI-H522 lung
[18] = test system: SK-MEL-5 melanoma
[19] = test system: SF-295 CNS
[20] = test system: MDA-N

CC(=O)Nc1ccc(-c2nc3ccccc3s2)cc1Cl
TGI [1]: > 100 µM
TGI [2]: > 100 µM
TGI [3]: > 100 µM
TGI [4]: > 100 µM
TGI [5]: > 100 µM
TGI [6]: > 100 µM
TGI [7]: > 100 µM
TGI [8]: > 100 µM
TGI [9]: > 100 µM
TGI [10]: > 100 µM
TGI [11]: > 100 µM
TGI [12]: > 100 µM
TGI [13]: > 100 µM
TGI [14]: > 100 µM
TGI [15]: > 100 µM
TGI [16]: > 100 µM
TGI [17]: > 100 µM
TGI [18]: > 100 µM
TGI [19]: > 100 µM
TGI [20]: > 100 µM

CC(=O)c1cccc(Nc2c3ccccc3nc3occc23)c1
TGI [1]: 52.6 µM
TGI [2]: > 100 µM
TGI [3]: > 100 µM
TGI [4]: > 100 µM
TGI [5]: 36 µM
TGI [6]: 18.8 µM
TGI [7]: 12.4 µM
TGI [8]: 9.58 µM
TGI [9]: > 100 µM
TGI [10]: 25.5 µM
TGI [11]: 18.2 µM
TGI [12]: 62.2 µM
TGI [13]: 7.97 µM
TGI [14]: > 100 µM
TGI [15]: > 100 µM
TGI [16]: > 100 µM
TGI [17]: 4.62 µM
TGI [18]: 23 µM
TGI [19]: 44 µM
TGI [20]: > 100 µM

CC(C)C(C/C=C1/CC(CO)(COC(=O)C(C)(C)C)OC1=O)C(C)C (stereo not given)
TGI [1]: 27.3 µM
TGI [2]: 27.5 µM
TGI [3]: 28.4 µM
TGI [4]: 23.3 µM
TGI [5]: 30.7 µM
TGI [6]: 36.5 µM
TGI [7]: 16.2 µM
TGI [8]: 31.5 µM
TGI [9]: 26.1 µM
TGI [10]: 32.7 µM
TGI [11]: 23.8 µM
TGI [12]: 25.3 µM
TGI [13]: 30.6 µM
TGI [14]: 23 µM
TGI [15]: 22.7 µM
TGI [16]: > 50.5 µM
TGI [17]: 27.6 µM
TGI [18]: 20.7 µM
TGI [19]: 17.9 µM
TGI [20]: 19.6 µM

Cc1ccc(-c2cn3c(nc4ccccc43)c(-c3ccccc3)n2)cc1
TGI [1]: > 100 µM
TGI [2]: > 66.6 µM
TGI [3]: > 100 µM
TGI [4]: > 100 µM
TGI [5]: 47.9 µM
TGI [6]: > 100 µM
TGI [7]: > 100 µM
TGI [8]: > 100 µM
TGI [9]: 48.7 µM
TGI [10]: > 100 µM
TGI [11]: 80.8 µM
TGI [12]: 56.4 µM
TGI [13]: > 100 µM
TGI [14]: > 100 µM
TGI [15]: > 100 µM
TGI [16]: > 100 µM
TGI [17]: > 100 µM
TGI [18]: > 100 µM
TGI [19]: > 67.1 µM
TGI [20]: > 100 µM

CC(C)(Cl)C(Br)CCC(CBr)=C(Cl)CCl (mixture of isomers)
TGI [1]: 4.1 µM
TGI [2]: 3.16 µM
TGI [3]: 3.59 µM
TGI [4]: 0.971 µM
TGI [5]: > 8.72 µM
TGI [6]: 0.568 µM
TGI [7]: 2.95 µM
TGI [8]: 2.2 µM
TGI [9]: 9.73 µM
TGI [10]: 4.89 µM
TGI [11]: 5.42 µM
TGI [12]: 3.5 µM
TGI [13]: 4.41 µM
TGI [14]: > 10 µM
TGI [15]: > 2.46 µM
TGI [16]: 2.55 µM
TGI [17]: 3.22 µM
TGI [18]: 3.87 µM
TGI [19]: > 10 µM
TGI [20]: 3.74 µM

N#CC(c1ccccc1)N(CCc1ccccc1)C(=O)c1ccccc1 (stereo not given)
TGI [1]: > 100 µM
TGI [2]: > 100 µM
TGI [3]: > 100 µM
TGI [4]: > 100 µM
TGI [5]: > 100 µM
TGI [6]: > 100 µM
TGI [7]: > 100 µM
TGI [8]: > 100 µM
TGI [9]: > 81 µM
TGI [10]: > 100 µM
TGI [11]: > 100 µM
TGI [12]: 59.7 µM
TGI [13]: > 100 µM
TGI [14]: > 100 µM
TGI [15]: > 100 µM
TGI [16]: > 100 µM
TGI [17]: > 100 µM
TGI [18]: > 100 µM
TGI [19]: > 100 µM
TGI [20]: > 100 µM

COc1ccc2c(c1)CCC(CN1CCN(CCOC(c3ccc(F)cc3)c3ccc(F)cc3)CC1)C2O (stereo not given)
TGI [1]: 63.2 µM
TGI [2]: 26.1 µM
TGI [3]: 29.8 µM
TGI [4]: 34 µM
TGI [5]: 31.5 µM
TGI [6]: 48.3 µM
TGI [7]: 14.6 µM
TGI [8]: 28.4 µM
TGI [9]: 31.5 µM
TGI [10]: 28.1 µM
TGI [11]: 28.1 µM
TGI [12]: 26.7 µM
TGI [13]: 30 µM
TGI [14]: 25.5 µM
TGI [15]: 39.8 µM
TGI [16]: > 100 µM
TGI [17]: 28.6 µM
TGI [18]: 20.1 µM
TGI [19]: 34.5 µM
TGI [20]: 29.7 µM

CCOC(=O)c1ccc(NC(=O)O/N=C(/Cl)C(C)C)cc1
TGI [1]: 35.9 µM
TGI [2]: 36.3 µM
TGI [3]: 9.65 µM
TGI [4]: 44 µM
TGI [5]: 33.4 µM
TGI [6]: 2.55 µM
TGI [7]: 3.26 µM
TGI [8]: 43 µM
TGI [9]: > 59.1 µM
TGI [10]: 32 µM
TGI [11]: 47.7 µM
TGI [12]: 3.7 µM
TGI [13]: 31 µM
TGI [14]: 31.3 µM
TGI [15]: 50.2 µM
TGI [16]: 11.2 µM
TGI [17]: 3.85 µM
TGI [18]: 30 µM
TGI [19]: 34.8 µM
TGI [20]: 32.4 µM

CCCCC1C(=O)N(c2ccc(S(=O)(=O)Nc3ccccn3)cc2)N(c2ccc(O)c(C(=O)O)c2)C1=O (stereo not given)
TGI [1]: > 100 µM
TGI [2]: > 100 µM
TGI [3]: > 100 µM
TGI [4]: > 100 µM
TGI [5]: > 100 µM
TGI [6]: > 100 µM
TGI [7]: > 100 µM
TGI [8]: > 100 µM
TGI [9]: > 100 µM
TGI [10]: > 100 µM
TGI [11]: > 100 µM
TGI [12]: > 100 µM
TGI [13]: > 100 µM
TGI [14]: > 100 µM
TGI [15]: > 100 µM
TGI [16]: > 100 µM
TGI [17]: > 100 µM
TGI [18]: > 100 µM
TGI [19]: > 100 µM
TGI [20]: > 100 µM

CCOC(=O)NC(Nc1ccc(F)c(F)c1)(C(=O)OCC)C(F)(F)F (stereo not given)
TGI [1]: > 100 µM
TGI [2]: > 100 µM
TGI [3]: > 100 µM
TGI [4]: > 100 µM
TGI [5]: > 100 µM
TGI [6]: > 100 µM
TGI [7]: > 100 µM
TGI [8]: > 100 µM
TGI [9]: > 100 µM
TGI [10]: > 100 µM
TGI [11]: > 100 µM
TGI [12]: > 100 µM
TGI [13]: > 100 µM
TGI [14]: > 100 µM
TGI [15]: > 100 µM
TGI [16]: > 100 µM
TGI [17]: > 100 µM
TGI [18]: > 100 µM
TGI [19]: > 100 µM
TGI [20]: > 100 µM

CC1=C(C(=O)NNC(=O)C(N)=O)CC(C(=O)NNC(=O)C(N)=O)=C(C)N1
TGI [1]: > 100 µM
TGI [2]: > 100 µM
TGI [3]: > 100 µM
TGI [4]: > 100 µM
TGI [5]: > 100 µM
TGI [6]: > 100 µM
TGI [7]: > 100 µM
TGI [8]: > 100 µM
TGI [9]: > 100 µM
TGI [10]: > 100 µM
TGI [11]: > 100 µM
TGI [12]: > 100 µM
TGI [13]: > 100 µM
TGI [14]: > 100 µM
TGI [15]: > 100 µM
TGI [16]: > 100 µM
TGI [17]: > 100 µM
TGI [18]: > 100 µM
TGI [19]: > 100 µM
TGI [20]: > 100 µM

c1ccc(CN2CCCN3CCN(CCCN(Cc4ccccc4)CC3)CC2)cc1
TGI [1]: > 100 µM
TGI [2]: > 100 µM
TGI [3]: > 100 µM
TGI [4]: > 100 µM
TGI [5]: > 100 µM
TGI [6]: > 100 µM
TGI [7]: 82.3 µM
TGI [8]: > 100 µM
TGI [9]: > 100 µM
TGI [10]: 68.5 µM
TGI [11]: > 100 µM
TGI [12]: > 100 µM
TGI [13]: > 100 µM
TGI [14]: > 100 µM
TGI [15]: > 100 µM
TGI [16]: > 100 µM
TGI [17]: > 100 µM
TGI [18]: 36.1 µM
TGI [19]: > 100 µM
TGI [20]: > 100 µM
